T1: Drosophila IntS9, subunit of the Integrator cleavage module (Drosophila (D. melanogaster), UniProt Q95TS5 1-654)
T1 construct: Integrator complex subunit 9 (IntS9), Drosophila; Cloned into the pFL acceptor vector together with IntS11; no tag is stated; also called Integrator subunit 9
T1 sequence: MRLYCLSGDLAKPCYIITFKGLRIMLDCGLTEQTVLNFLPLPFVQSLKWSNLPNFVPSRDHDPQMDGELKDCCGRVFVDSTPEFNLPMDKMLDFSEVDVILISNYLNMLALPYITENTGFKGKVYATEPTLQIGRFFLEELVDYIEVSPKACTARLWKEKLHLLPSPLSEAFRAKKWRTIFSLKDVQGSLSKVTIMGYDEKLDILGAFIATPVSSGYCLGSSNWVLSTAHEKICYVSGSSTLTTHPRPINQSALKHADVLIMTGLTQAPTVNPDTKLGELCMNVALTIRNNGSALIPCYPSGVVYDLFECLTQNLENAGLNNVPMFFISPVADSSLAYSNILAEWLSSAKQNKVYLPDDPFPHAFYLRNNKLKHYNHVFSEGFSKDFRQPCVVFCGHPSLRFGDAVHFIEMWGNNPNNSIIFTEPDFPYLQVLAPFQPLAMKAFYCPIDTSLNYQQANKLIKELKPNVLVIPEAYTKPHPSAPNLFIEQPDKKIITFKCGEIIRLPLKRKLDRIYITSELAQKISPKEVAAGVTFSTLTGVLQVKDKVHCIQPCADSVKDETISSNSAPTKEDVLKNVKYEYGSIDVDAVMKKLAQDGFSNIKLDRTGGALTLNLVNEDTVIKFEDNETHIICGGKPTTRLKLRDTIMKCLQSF

T2: Drosophila IntS4 (N-terminal 6xHis-tagged), subunit of the Integrator cleavage module (Drosophila (D. melanogaster), UniProt Q9W3E1 1-1022)
T2 construct: Integrator complex subunit 4 (IntS4), Drosophila; Residues beyond 570 (CTD) were not modelled in the structure; also called Integrator subunit 4
T2 sequence: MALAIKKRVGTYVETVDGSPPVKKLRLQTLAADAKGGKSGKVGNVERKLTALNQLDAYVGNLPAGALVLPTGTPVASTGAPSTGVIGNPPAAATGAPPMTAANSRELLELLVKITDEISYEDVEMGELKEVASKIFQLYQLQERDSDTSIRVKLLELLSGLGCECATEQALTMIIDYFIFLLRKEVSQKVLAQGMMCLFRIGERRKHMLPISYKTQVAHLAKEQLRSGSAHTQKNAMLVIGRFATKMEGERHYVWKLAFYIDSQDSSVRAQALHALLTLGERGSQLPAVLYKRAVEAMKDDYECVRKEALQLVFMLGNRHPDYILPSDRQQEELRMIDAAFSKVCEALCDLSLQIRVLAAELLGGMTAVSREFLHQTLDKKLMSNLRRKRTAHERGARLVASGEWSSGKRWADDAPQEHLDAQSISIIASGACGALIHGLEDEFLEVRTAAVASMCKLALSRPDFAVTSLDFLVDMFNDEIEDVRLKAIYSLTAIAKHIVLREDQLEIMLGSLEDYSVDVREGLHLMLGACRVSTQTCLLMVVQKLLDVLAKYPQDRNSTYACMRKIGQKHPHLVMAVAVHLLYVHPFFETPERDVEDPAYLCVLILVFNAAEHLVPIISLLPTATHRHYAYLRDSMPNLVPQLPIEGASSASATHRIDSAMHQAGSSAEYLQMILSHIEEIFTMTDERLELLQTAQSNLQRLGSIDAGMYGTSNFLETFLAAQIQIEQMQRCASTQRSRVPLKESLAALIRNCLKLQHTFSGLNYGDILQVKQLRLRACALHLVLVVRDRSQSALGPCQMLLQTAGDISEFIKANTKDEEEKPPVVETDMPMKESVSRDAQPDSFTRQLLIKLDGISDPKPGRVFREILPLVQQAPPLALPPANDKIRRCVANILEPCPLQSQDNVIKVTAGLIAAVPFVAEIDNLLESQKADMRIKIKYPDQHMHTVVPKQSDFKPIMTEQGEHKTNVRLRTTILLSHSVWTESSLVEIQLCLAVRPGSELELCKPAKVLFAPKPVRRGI


Key:
[1] = target: T3, Drosophila IntS4-IntS9-IntS11 complex (Drosophila ICM, Integrator cleavage module) (Drosophila melanogaster, UniProt Q95TS5+Q9VAH9+Q9W3E1); assay: cryo-EM structure ([…] Å); LC-MS/MS of co-purified ligand; format: binding; settings: ligand co-purified from insect cells, none added; site at interface of IntS4, IntS9 and IntS11, 55 Å from the IntS11 active site
T3 construct: IntS4 (N-terminal 6xHis), IntS9 and IntS11 co-expressed in Tni insect cells; IP6 co-purified from the host; free IntS9 N-terminus contacts IP6

[2] = target: T4, Drosophila IntS4-IntS9-IntS11 complex (Drosophila ICM, Integrator cleavage module) (Drosophila melanogaster, UniProt Q95TS5+Q9VAH9+Q9W3E1, Q9VAH9:K462E); assay: LC-MS/MS of co-purified ligand; format: binding; settings: ligand co-purified from insect cells, none added; site mutant, gel filtration profile comparable to wild type
T4 construct: IntS4 (N-terminal 6xHis), IntS9 and IntS11 co-expressed in Tni insect cells; IP6 co-purified from the host; free IntS9 N-terminus contacts IP6

[3] = target: T5, human INTS4-INTS9-INTS11 complex (human ICM) (Homo sapiens, UniProt Q5TA45+Q96HW7+Q9NV88, Q9NV88:K510E/Q9NV88:R511E); assay: LC-MS/MS of co-purified ligand; format: binding; settings: ligand co-purified from insect cells, none added; site mutant, gel filtration profile comparable to wild type
T5 construct: three-subunit complex purified from insect cell expression

[4] = target: T6, human INTS4-INTS9-INTS11 complex (human ICM) (Homo sapiens, UniProt Q5TA45+Q96HW7+Q9NV88, Q5TA45:K462E); assay: LC-MS/MS of co-purified ligand; format: binding; settings: ligand co-purified from insect cells, none added; site mutant, gel filtration profile comparable to wild type
T6 construct: three-subunit complex purified from insect cell expression

[5] = target: T7, human INTS4-INTS9-INTS11 complex (human ICM) (Homo sapiens, UniProt Q5TA45+Q96HW7+Q9NV88); assay: LC-MS/MS of co-purified ligand; IP6 also fitted into published human ICM map (EMDB […]); format: binding; settings: ligand co-purified from insect cells, none added
T7 construct: three-subunit complex purified from insect cell expression

[6] = target: T1, Drosophila IntS9, subunit of the …; assay: SEC; gel filtration (Hiload 16/60 Superdex 200) of wild-type and K462E mutant Drosophila ICM co-expressed in insect cells, after nickel affinity; SDS gel of the complex; settings: both partners purified
[7] = target: T2, Drosophila IntS4 (N-terminal …); assay: as above; settings: both partners purified

T3 sequence (Q9VAH9 whole entry, one chain of several): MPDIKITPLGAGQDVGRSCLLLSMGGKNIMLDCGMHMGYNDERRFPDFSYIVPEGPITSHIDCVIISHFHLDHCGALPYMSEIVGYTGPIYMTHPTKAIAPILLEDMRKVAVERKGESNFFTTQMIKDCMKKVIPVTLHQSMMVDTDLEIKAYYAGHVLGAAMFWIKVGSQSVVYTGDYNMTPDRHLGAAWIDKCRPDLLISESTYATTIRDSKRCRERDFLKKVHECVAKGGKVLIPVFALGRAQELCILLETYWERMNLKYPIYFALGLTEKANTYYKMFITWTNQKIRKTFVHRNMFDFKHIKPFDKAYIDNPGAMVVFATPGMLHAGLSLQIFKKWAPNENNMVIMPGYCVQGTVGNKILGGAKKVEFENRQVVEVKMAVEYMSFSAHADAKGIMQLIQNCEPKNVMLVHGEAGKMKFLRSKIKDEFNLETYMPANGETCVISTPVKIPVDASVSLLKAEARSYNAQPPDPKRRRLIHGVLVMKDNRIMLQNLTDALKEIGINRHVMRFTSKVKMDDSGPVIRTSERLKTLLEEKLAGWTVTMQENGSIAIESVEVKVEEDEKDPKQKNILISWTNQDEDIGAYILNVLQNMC
T6 sequence (Q96HW7 whole entry): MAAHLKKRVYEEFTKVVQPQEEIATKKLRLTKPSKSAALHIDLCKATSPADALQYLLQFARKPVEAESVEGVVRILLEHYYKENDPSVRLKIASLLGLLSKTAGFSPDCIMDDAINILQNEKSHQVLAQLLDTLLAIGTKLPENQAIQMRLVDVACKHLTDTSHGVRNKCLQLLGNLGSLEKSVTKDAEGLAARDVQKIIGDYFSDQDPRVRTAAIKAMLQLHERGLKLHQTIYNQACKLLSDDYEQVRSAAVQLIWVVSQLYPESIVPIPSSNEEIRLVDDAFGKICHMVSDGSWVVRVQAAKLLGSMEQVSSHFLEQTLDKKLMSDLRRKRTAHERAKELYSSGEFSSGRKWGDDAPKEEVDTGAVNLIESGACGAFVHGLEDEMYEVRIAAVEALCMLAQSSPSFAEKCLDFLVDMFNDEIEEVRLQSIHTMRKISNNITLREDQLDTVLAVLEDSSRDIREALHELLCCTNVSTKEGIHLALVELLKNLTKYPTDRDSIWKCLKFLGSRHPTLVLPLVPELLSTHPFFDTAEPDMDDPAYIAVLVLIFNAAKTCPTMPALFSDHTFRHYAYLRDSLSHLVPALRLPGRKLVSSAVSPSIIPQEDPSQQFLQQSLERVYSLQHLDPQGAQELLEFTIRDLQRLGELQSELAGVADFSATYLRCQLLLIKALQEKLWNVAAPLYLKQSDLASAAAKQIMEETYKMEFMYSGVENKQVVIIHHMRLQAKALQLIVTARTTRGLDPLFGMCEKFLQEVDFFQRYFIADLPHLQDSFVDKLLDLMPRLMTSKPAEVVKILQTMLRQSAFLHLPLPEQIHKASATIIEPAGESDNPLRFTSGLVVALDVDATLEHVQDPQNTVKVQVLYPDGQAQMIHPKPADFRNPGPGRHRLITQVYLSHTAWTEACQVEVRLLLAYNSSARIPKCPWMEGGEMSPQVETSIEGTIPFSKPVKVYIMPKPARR
T6 sequence (Q9NV88 whole entry): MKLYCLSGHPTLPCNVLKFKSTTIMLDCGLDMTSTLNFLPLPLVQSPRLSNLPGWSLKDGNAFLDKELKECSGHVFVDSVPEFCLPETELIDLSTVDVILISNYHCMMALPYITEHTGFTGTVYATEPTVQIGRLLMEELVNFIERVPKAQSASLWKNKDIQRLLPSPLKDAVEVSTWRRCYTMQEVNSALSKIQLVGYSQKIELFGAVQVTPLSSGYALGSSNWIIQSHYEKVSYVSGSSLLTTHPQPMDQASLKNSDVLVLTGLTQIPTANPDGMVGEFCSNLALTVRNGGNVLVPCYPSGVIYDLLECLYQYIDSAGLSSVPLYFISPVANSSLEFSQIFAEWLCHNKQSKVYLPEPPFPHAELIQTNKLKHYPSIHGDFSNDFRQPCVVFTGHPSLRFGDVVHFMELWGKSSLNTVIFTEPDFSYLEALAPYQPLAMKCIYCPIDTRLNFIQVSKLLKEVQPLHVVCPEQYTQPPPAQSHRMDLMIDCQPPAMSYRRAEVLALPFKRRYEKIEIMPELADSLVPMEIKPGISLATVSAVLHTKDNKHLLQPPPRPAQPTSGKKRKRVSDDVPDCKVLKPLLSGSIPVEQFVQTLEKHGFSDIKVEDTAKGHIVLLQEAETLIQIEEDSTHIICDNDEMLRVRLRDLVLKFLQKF
T6 sequence (Q5TA45 whole entry K462E): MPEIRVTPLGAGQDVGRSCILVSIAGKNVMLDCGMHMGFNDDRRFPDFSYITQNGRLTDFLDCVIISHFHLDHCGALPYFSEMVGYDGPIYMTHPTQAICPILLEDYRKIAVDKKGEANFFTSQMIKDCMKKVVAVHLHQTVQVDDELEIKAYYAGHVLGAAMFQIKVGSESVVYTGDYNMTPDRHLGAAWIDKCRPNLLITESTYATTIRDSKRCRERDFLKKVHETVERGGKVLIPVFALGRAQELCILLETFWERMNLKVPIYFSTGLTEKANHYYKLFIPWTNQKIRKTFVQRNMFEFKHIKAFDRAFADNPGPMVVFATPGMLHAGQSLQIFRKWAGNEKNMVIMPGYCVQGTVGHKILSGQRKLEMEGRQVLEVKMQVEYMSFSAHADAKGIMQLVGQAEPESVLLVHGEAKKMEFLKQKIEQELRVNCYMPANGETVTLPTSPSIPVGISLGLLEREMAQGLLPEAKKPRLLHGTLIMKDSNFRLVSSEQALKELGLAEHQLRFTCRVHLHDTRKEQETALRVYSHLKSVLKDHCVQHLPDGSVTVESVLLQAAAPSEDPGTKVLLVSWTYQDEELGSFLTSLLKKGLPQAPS
T5 sequence (Q96HW7 whole entry): as the sequence (Q96HW7 whole entry) above
T5 sequence (Q9NV88 whole entry K510E/R511E): as the sequence (Q9NV88 whole entry) above, with K510E, R511E counted along it
T5 sequence (Q5TA45 whole entry): as the sequence (Q5TA45 whole entry K462E) above, with E462K counted along it
T7 sequence (Q96HW7 whole entry): as the sequence (Q96HW7 whole entry) above
T7 sequence (Q9NV88 whole entry): as the sequence (Q9NV88 whole entry) above
T7 sequence (Q5TA45 whole entry): as the sequence (Q5TA45 whole entry K462E) above, with E462K counted along it

binding result [6]	binding result [7]	Molecule	cryo-EM structure (2.74 Å); LC-MS/MS of co-purified ligand [1]	IP6 detection [2]	IP6 detection [3]	IP6 detection [4]	LC-MS/MS of co-purified ligand; IP6 also fitted into published human ICM map (EM) [5]
–	–	O=P(O)(O)O[C@H]1[C@H](OP(=O)(O)O)[C@@H](OP(=O)(O)O)[C@H](OP(=O)(O)O)[C@@H](OP(=O)(O)O)[C@H]1OP(=O)(O)O [inositol hexakisphosphate]	The structure of Drosophila ICM unexpectedly revealed the presence of an inositol hexakisphosphate (IP6) molecule	we failed to detect IP6 in our mass spectrometry experiments on them	human ICM sample containing the K510E/R511E double mutation in IntS9	we failed to detect IP6 in our mass spectrometry experiments on them	confirm by mass spectrometry the binding of IP6 to wild-type human or Drosophila ICM samples
binds	binds	Drosophila IntS11 K462E (in the K462E mutant Drosophila ICM) (enzyme, Drosophila (D. melanogaster), Integrator complex subunit 11 (IntS11), Drosophila, with K462E; also called K462E mutant of Drosophila ICM; source: insect cells, purified as ICM sample) MPDIKITPLGAGQDVGRSCLLLSMGGKNIMLDCGMHMGYNDERRFPDFSYIVPEGPITSHIDCVIISHFHLDHCGALPYMSEIVGYTGPIYMTHPTKAIAPILLEDMRKVAVERKGESNFFTTQMIKDCMKKVIPVTLHQSMMVDTDLEIKAYYAGHVLGAAMFWIKVGSQSVVYTGDYNMTPDRHLGAAWIDKCRPDLLISESTYATTIRDSKRCRERDFLKKVHECVAKGGKVLIPVFALGRAQELCILLETYWERMNLKYPIYFALGLTEKANTYYKMFITWTNQKIRKTFVHRNMFDFKHIKPFDKAYIDNPGAMVVFATPGMLHAGLSLQIFKKWAPNENNMVIMPGYCVQGTVGNKILGGAKKVEFENRQVVEVKMAVEYMSFSAHADAKGIMQLIQNCEPKNVMLVHGEAGKMKFLRSKIKDEFNLETYMPANGETCVISTPVKIPVDASVSLLEAEARSYNAQPPDPKRRRLIHGVLVMKDNRIMLQNLTDALKEIGINRHVMRFTSKVKMDDSGPVIRTSERLKTLLEEKLAGWTVTMQENGSIAIESVEVKVEEDEKDPKQKNILISWTNQDEDIGAYILNVLQNMC	–	–	–	–	–

— paper PMC9525679, “Inositol hexakisphosphate is required for Integrator function” (Nature Communications, 2022)
